Test results published in PubChem BioAssay AID256 (DTP/NCI, 2004).
Inconclusive results and toxic doses are left out. Rule for the calls: active = survival T/C of 150% or more; inactive = T/C below 125% in these data.

Tested on: CD2F1 mice, L1210 leukemia ip, survival T/C
Assay: NCI In Vivo Anticancer Drug Screen. Data for tumor model L1210 Leukemia (intraperitoneal) in CD2F1 (CDF1) mice
Conditions: endpoint: mean survival time, higher = longer survival
Outline: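 Each value reflects a quotient of treated over vehicle control outcomes in mice with a transplanted tumor.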

[1] = dose: 50.0 mg/kg/injection, schedule: Q01DX009 (ip), vehicle: saline
[2] = dose: 100.0 mg/kg/injection, schedule: Q01DX009 (ip), vehicle: saline
[3] = dose: 200.0 mg/kg/injection, schedule: Q01DX009 (ip), vehicle: saline
[4] = dose: 100.0 mg/kg/injection, schedule: Q04DX003 (ip), vehicle: saline with Tween-80
[5] = dose: 200.0 mg/kg/injection, schedule: Q04DX003 (ip), vehicle: saline with Tween-80
[6] = dose: 400.0 mg/kg/injection, schedule: Q04DX003 (ip), vehicle: saline with Tween-80
[7] = dose: 100.0 mg/kg/injection, schedule: Q01DX009 (ip), vehicle: saline with Tween-80
[8] = dose: 200.0 mg/kg/injection, schedule: Q01DX009 (ip), vehicle: saline with Tween-80
[9] = dose: 50.0 mg/kg/injection, schedule: Q01DX009 (ip), vehicle: other
[10] = dose: 100.0 mg/kg/injection, schedule: Q01DX009 (ip), vehicle: other

Measured: T/C

Cn1c(=O)c2[nH]c(-c3ccc(Cl)cc3)nc2n(C)c1=O
inactive: dose: 12.5 mg/kg/injection, schedule: Q01DX005 (ip), vehicle: other 89 % of control | dose: 25.0 mg/kg/injection, schedule: Q01DX005 (ip), vehicle: other 89 % of control | dose: 50.0 mg/kg/injection, schedule: Q01DX005 (ip), vehicle: other 93 % of control | dose: 100.0 mg/kg/injection, schedule: Q01DX005 (ip), vehicle: other 89 % of control | dose: 200.0 mg/kg/injection, schedule: Q01DX005 (ip), vehicle: other 95 % of control

CN(C)c1ccc(Cc2cc(O)c3c(c2O)C(=O)c2ccccc2C3=O)cc1
inactive: dose: 100.0 mg/kg/injection, schedule: Q01DX009 (ip), vehicle: saline sonified 93 % of control | dose: 200.0 mg/kg/injection, schedule: Q01DX009 (ip), vehicle: saline sonified 100 % of control | dose: 400.0 mg/kg/injection, schedule: Q01DX009 (ip), vehicle: saline sonified 96 % of control

O=[N+]([O-])c1ccc(S(=O)Cc2ccccc2)c([N+](=O)[O-])c1 (configuration not stated)
inactive: dose: 75.0 mg/kg/injection, schedule: Q01DX001 (ip), vehicle: other 100 % of control

COc1ccc(N/C=C/C2=[N+](C)c3ccccc3C2(C)C)c(OC)c1
inactive: [1] 103 % of control | [2] 105 % of control | dose: 100.0 mg/kg/injection, schedule: Q04DX003 (ip), vehicle: saline 89 % of control | [3] 97 % of control | dose: 200.0 mg/kg/injection, schedule: Q04DX003 (ip), vehicle: saline 89 % of control

C[S+](C)CC(=O)O
inactive: [2] 97 % of control | [3] 101 % of control | dose: 400.0 mg/kg/injection, schedule: Q01DX009 (ip), vehicle: saline 92 % of control

O=C(O)CCCCCCCCC#CC#CCCCc1ccccc1
inactive: dose: 100.0 mg/kg/injection, schedule: Q04DX003 (ip), vehicle: Klucel (hydroxypropylcellulose) (HPC) 95 % of control | dose: 200.0 mg/kg/injection, schedule: Q04DX003 (ip), vehicle: Klucel (hydroxypropylcellulose) (HPC) 95 % of control | dose: 400.0 mg/kg/injection, schedule: Q04DX003 (ip), vehicle: Klucel (hydroxypropylcellulose) (HPC) 97 % of control

O=S(CS(=O)c1ccccc1)c1ccccc1 (configuration not stated)
inactive: [4] 100 % of control | [5] 109 % of control | [6] 105 % of control

Cc1cc(-n2cccc2)no1
inactive: [7] 98 % of control | [8] 107 % of control | dose: 400.0 mg/kg/injection, schedule: Q01DX009 (ip), vehicle: saline with Tween-80 94 % of control

[Pd].[Pd].[S-]CC[S-].[S-]CC[S-].c1ccc([PH+](c2ccccc2)c2ccccc2)cc1.c1ccc([PH+](c2ccccc2)c2ccccc2)cc1
inactive: dose: 3.13 mg/kg/injection, schedule: Q04DX003 (ip), vehicle: distilled water + Tween-80 106 % of control | dose: 6.25 mg/kg/injection, schedule: Q04DX003 (ip), vehicle: distilled water + Tween-80 98 % of control | dose: 12.5 mg/kg/injection, schedule: Q04DX003 (ip), vehicle: distilled water + Tween-80 95 % of control | dose: 25.0 mg/kg/injection, schedule: Q04DX003 (ip), vehicle: distilled water + Tween-80 92 % of control | dose: 50.0 mg/kg/injection, schedule: Q04DX003 (ip), vehicle: distilled water + Tween-80 95 % of control | dose: 100.0 mg/kg/injection, schedule: Q04DX003 (ip), vehicle: distilled water + Tween-80 92 % of control | dose: 200.0 mg/kg/injection, schedule: Q04DX003 (ip), vehicle: distilled water + Tween-80 93 % of control

CNC(=O)Nc1ccc(C(=O)NC(C)C)cc1
inactive: dose: 22.0 mg/kg/injection, schedule: Q01DX009 (ip), vehicle: other 93 % of control | dose: 33.0 mg/kg/injection, schedule: Q01DX009 (ip), vehicle: other 102 % of control | [9] 94 % of control | [10] 95 % of control | dose: 200.0 mg/kg/injection, schedule: Q01DX009 (ip), vehicle: other 91 % of control | dose: 400.0 mg/kg/injection, schedule: Q01DX009 (ip), vehicle: other 96 % of control | dose: 800.0 mg/kg/injection, schedule: Q01DX009 (ip), vehicle: other 100 % of control

Cc1ccccc1C(C)(C#N)Nc1ccccc1 (configuration not stated)
inactive: [4] 101 % of control | [5] 103 % of control | [6] 104 % of control

CN(C)CC1CCCCC(CN(C)C)C1=O (configuration not stated)
inactive: dose: 75.0 mg/kg/injection, schedule: Q01DX001 (ip), vehicle: saline 120 % of control | dose: 150.0 mg/kg/injection, schedule: Q01DX001 (ip), vehicle: saline 104 % of control | dose: 300.0 mg/kg/injection, schedule: Q01DX001 (ip), vehicle: saline 104 % of control

O=c1ccn(C2CC(O)C(CO)O2)cc1 (configuration not stated)
inactive: dose: 100.0 mg/kg/injection, schedule: Q01DX005 (ip), vehicle: saline 101 % of control | dose: 200.0 mg/kg/injection, schedule: Q01DX005 (ip), vehicle: saline 100 % of control

[Cl][Pt][Cl].c1ccc([PH+](CC[PH+](c2ccccc2)c2ccccc2)c2ccccc2)cc1
inactive: dose: 37.5 mg/kg/injection, schedule: Q04DX003 (ip), vehicle: saline 98 % of control | dose: 75.0 mg/kg/injection, schedule: Q04DX003 (ip), vehicle: saline 93 % of control | dose: 150.0 mg/kg/injection, schedule: Q04DX003 (ip), vehicle: saline 96 % of control | dose: 300.0 mg/kg/injection, schedule: Q04DX003 (ip), vehicle: saline 95 % of control

CC(C)(CCC#N)C(O)c1ccccc1 (configuration not stated)
inactive: dose: 100.0 mg/kg/injection, schedule: Q04DX002 (ip), vehicle: other 98 % of control | dose: 200.0 mg/kg/injection, schedule: Q04DX002 (ip), vehicle: other 102 % of control | dose: 400.0 mg/kg/injection, schedule: Q04DX002 (ip), vehicle: other 105 % of control

CC(C)C1=CCC(OC(=O)N=C=Nc2ccccc2)CC1 (configuration not stated)
inactive: dose: 100.0 mg/kg/injection, schedule: Q01DX001 (ip), vehicle: Klucel (hydroxypropylcellulose) (HPC) 93 % of control | dose: 100.0 mg/kg/injection, schedule: Q04DX002 (ip), vehicle: saline with Tween-80 90 % of control | dose: 200.0 mg/kg/injection, schedule: Q01DX001 (ip), vehicle: Klucel (hydroxypropylcellulose) (HPC) 91 % of control | dose: 200.0 mg/kg/injection, schedule: Q04DX002 (ip), vehicle: saline with Tween-80 96 % of control | dose: 400.0 mg/kg/injection, schedule: Q01DX001 (ip), vehicle: Klucel (hydroxypropylcellulose) (HPC) 94 % of control | dose: 400.0 mg/kg/injection, schedule: Q04DX002 (ip), vehicle: saline with Tween-80 93 % of control

COC(=O)c1ccn2c1CCC2
inactive: dose: 25.0 mg/kg/injection, schedule: Q01DX009 (ip), vehicle: Klucel (hydroxypropylcellulose) (HPC) 92 % of control | dose: 50.0 mg/kg/injection, schedule: Q01DX009 (ip), vehicle: Klucel (hydroxypropylcellulose) (HPC) 87 % of control | dose: 100.0 mg/kg/injection, schedule: Q01DX009 (ip), vehicle: Klucel (hydroxypropylcellulose) (HPC) 91 % of control | dose: 200.0 mg/kg/injection, schedule: Q01DX009 (ip), vehicle: Klucel (hydroxypropylcellulose) (HPC) 97 % of control | dose: 400.0 mg/kg/injection, schedule: Q01DX009 (ip), vehicle: Klucel (hydroxypropylcellulose) (HPC) 87 % of control

C=C(C)C(=O)OCCN(C)C (tested in a mixture with another compound)
inactive: [7] 97 % of control | [4] 100 % of control | [8] 106 % of control | [5] 122 % of control | [6] 92 % of control

CC(=O)CC(C)=O.CC(=O)CC(C)=O.[Pd]
inactive: dose: 6.25 mg/kg/injection, schedule: Q04DX002 (ip), vehicle: saline with Tween-80 96 % of control | dose: 12.5 mg/kg/injection, schedule: Q04DX002 (ip), vehicle: saline with Tween-80 87 % of control

CC1=CC(C)(C)Nc2ccc(CSc3ccccc3)cc21
inactive: dose: 12.5 mg/kg/injection, schedule: Q01DX009 (ip), vehicle: DMSO 102 % of control | dose: 25.0 mg/kg/injection, schedule: Q01DX009 (ip), vehicle: DMSO 95 % of control | dose: 25.0 mg/kg/injection, schedule: Q01DX009 (ip), vehicle: other 97 % of control | dose: 50.0 mg/kg/injection, schedule: Q01DX009 (ip), vehicle: DMSO 97 % of control | [9] 93 % of control | [10] 96 % of control

O=C1CCCCc2c1ccc(O)c2[N+](=O)[O-]
inactive: dose: 12.5 mg/kg/injection, schedule: Q01DX009 (ip), vehicle: saline 113 % of control | dose: 25.0 mg/kg/injection, schedule: Q01DX009 (ip), vehicle: saline 106 % of control | [1] 97 % of control
